US7544814B2, “[3.2.0] Heterocyclic compounds and methods of using the same” (Nereus Pharmaceuticals, Inc., priority 2004, dated 2009)
Values joined by “and” are separate entries in the source; they are usually repeats but may differ in a detail not shown here. Equal entries are not always repeated. Where two headings read alike, the source gives them in different places.

Columns and labels:
[1] = molecular target: T1, trypsin-like activity of purified rabbit muscle 20S proteasome (Oryctolagus cuniculus, UniProt G1SWK8); test: biochemical
T1 sequence (G1SWK8 1-271): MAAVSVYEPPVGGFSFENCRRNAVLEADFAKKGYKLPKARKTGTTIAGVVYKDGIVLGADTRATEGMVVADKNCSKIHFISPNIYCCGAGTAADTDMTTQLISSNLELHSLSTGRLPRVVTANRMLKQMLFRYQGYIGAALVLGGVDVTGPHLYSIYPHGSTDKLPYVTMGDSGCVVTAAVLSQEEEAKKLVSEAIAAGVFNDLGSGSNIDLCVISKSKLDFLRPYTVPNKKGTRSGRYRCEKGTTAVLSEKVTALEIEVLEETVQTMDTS

[2] = molecular target: T2, chymotrypsin-like activity of 20S proteasomes in RPMI 8226 cells (Homo sapiens, UniProt P28074); test: Chymotrypsin-like activity of 20S proteasomes in lysates of treated RPMI 8226 cells; type: cell-based; conditions: RPMI-8226, read-out: % inhibition of the chymotrypsin-like activity of 20S proteasomes in RPMI 8226 cell lysates
T2 construct: added to 2.5×10^5/ml RMPI 8226 cells; endogenous in cells; host or cells: RPMI 8226 (ATCC CCL-155)
T2 sequence (P28074 60-263): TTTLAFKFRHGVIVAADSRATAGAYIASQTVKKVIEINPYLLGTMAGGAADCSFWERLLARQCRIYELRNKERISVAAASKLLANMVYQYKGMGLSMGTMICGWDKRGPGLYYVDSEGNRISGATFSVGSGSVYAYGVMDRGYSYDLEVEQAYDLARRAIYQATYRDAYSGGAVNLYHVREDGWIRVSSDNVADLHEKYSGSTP
Method: RPMI 8226 (ATCC, CCL-155), the human multiple myeloma cell line, was cultured in RPMI 1640 medium supplemented with 2 mM L-glutamine, 100 units/ml penicillin, 100 μg/ml streptomycin, 1 mM sodium pyruvate and 10% heat inactivated fetal bovine serum at 37° C., 5% CO2 and 95% humidified air. […] DMSO was used as the vehicle control at a final concentration of 0.1%. Following 1 hr incubation of RMPI 8226 cells with the compounds, the cells were pelleted by centrifugation at 2,000 rpm for 10 sec at room temperature and washed 3× with ice-cold 1× Dulbecco's Phosphate-Buffered Saline (DPBS, Mediatech, Herndon, Va.). DPBS washed cells were lysed on ice for 15 min in lysis buffer (20 mM HEPES, 0.5 mM EDTA, 0.05% Triton X-100, pH 7.3) supplemented with protease inhibitor cocktail (Roche Diagnostics, Indianapolis, Ind.). Cell debris was pelleted by centrifugation at 14,000 rpm for 10 min, 4° C. and supernatants (=cell lysates) were transferred to a new tube. Protein concentration was determined by the BCA protein assay kit (Pierce Biotechnology, Rockford, Ill.). […] The released coumarin (AMC) was measured fluorometrically by using λex=390 nm and λem=460 nm. The assay was performed in a microtiter plate (Corning 3904) and followed kinetically with measurements every five minutes for 2 hr. The total amount of protein used for each assay was 20 μg. The final concentration of Suc-LLVY-AMC and DMSO was 20 μM and 0.2%, respectively.

[3] = system: RPMI 8226; test: cells; conditions: 1% or 10% FBS
Method: RPMI 8226 (CCL-155), HT-29 (HTB-38), and B16-F10 (CRL-6475) cells were purchased from ATCC. RPMI 8226 cells were maintained in RPMI 1640 media supplemented with 10% (v/v) FBS, 2 mM L-glutamine, 1 mM sodium pyruvate and Penicillin/Streptomycin at 100 IU/ml and 100 μg/ml, respectively. HT-29 cells were maintained in McCoys 5A supplemented with 10% (v/v) FBS, 2 mM L-glutamine, 1 mM sodium pyruvate, 1% (v/v) non-essential amino acids, 10 mM HEPES and Penicillin/Streptomycin at 100 IU/ml and 100 μg/ml, respectively. B16-F10 cells were maintained in DMEM supplemented with 10% (v/v) FBS, 2 mM L-glutamine, 10 mM HEPES and Penicillin/Streptomycin at 100 IU/ml and 100 μg/ml, respectively.
RPMI 8226 cells were seeded at 2×10^4 cells/well in 90 μl RPMI media containing 10% (v/v) FBS or 1% (v/v) FBS into 96 well black-walled, clear-bottom tissue culture plates. […] Formulae II-16, II-17 and Formula II-18 were serially diluted in media containing 1% or 10% FBS and added in triplicate to the test wells. […] The final concentration of Formula II-18 ranged from 2 μM to 630 pM.

[4] = molecular target: T3, chymotrypsin-like activity of 20S proteasomes in PC-3 cells (Homo sapiens, UniProt P28074); test: Chymotrypsin-like activity of 20S proteasomes in lysates of treated PC-3 cells; type: cell-based; conditions: 100 nM, 1 hr incubation
T3 construct: endogenous in cells; host or cells: PC-3 (ATCC CRL-1435)
Method: PC-3 (ATCC, CRL-1435), the human prostate cancer cell line, was cultured in F12K medium supplemented with 2 mM L-glutamine, 100 units/ml penicillin, 100 μg/ml streptomycin and 10% heat inactivated fetal bovine serum at 37° C., 5% CO2 and 95% humidified air. […] DMSO was used as the vehicle control at a final concentration of 0.1%. Following 1 hr incubation of PC-3 cells with the compounds, the cells were washed 3× with ice-cold 1× Dulbecco's Phosphate-Buffered Saline (DPBS, Mediatech, Herndon, Va.). […] Cell debris was pelleted by centrifugation at 14,000 rpm for 10 min, 4° C. and supernatants (=cell lysates) were transferred to a new tube. Protein concentration was determined by the BCA protein assay kit (Pierce Biotechnology, Rockford, Ill.). […] The released coumarin (AMC) was measured fluorometrically by using λex=390 nm and λem=460 nm. The assay was performed in a microtiter plate (Corning 3904) and followed kinetically with measurements every five minutes for 2 hr. The total amount of protein used for each assay was 20 μg. The final concentration of Suc-LLVY-AMC and DMSO was 20 μM and 0.2%, respectively. Results are presented as the percent inhibition of the 20S proteasome chymotrypsin-like activity relative to the DMSO control.

[5] = system: U266
[6] = system: U266; test: Cell growth inhibition (resazurin), U266; conditions: 48 hours drug exposure
[7] = system: RPMI 8226; test: Cell growth inhibition (resazurin), RPMI 8226; conditions: Homo sapiens, RPMI-8226, 48 h, read-out: RPMI 8226 EC50, Table 2; 48 hours drug exposure; mean ± SD where n≥3
[8] = molecular target: T4, chymotrypsin-like activity of purified rabbit muscle 20S proteasome (Oryctolagus cuniculus, UniProt G1T4Q9); test: In vitro inhibition of 20S proteasome chymotrypsin-like activity (suc-LLVY-AMC)
T4 sequence (G1T4Q9 1-263): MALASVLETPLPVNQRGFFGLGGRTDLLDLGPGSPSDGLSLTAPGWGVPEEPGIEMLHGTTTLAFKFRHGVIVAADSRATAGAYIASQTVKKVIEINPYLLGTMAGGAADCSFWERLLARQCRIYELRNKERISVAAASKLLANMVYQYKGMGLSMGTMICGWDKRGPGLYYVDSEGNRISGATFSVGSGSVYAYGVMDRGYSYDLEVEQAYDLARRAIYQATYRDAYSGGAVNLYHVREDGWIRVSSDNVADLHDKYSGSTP

[9] = molecular target: T5, caspase-like activity of purified rabbit muscle 20S proteasome (Oryctolagus cuniculus, UniProt A0A5F9DQW2); test: In vitro inhibition of 20S proteasome caspase-like activity (Z-LLE-AMC); conditions: EC50 Caspase-like, Table 6, values in μM
T5 sequence (A0A5F9DQW2 1-212): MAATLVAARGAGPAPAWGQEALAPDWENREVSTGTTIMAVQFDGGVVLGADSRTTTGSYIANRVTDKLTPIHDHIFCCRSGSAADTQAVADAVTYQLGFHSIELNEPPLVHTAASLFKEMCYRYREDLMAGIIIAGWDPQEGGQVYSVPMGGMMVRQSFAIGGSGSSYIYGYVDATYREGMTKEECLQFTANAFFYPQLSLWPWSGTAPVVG

[10] = system: HL-60/MX2; test: Cell growth inhibition (resazurin), multidrug resistant HL-60/MX2; conditions: ratio of EC50 values (HL-60/MX2:HL-60)
Method: Concentrations ranging from 6.32 μM to 2 nM were tested for II-2 and II-4.
HL-60/MX2 is a multidrug resistant tumor cell line derived from the human promyelocytic leukemia cell line, HL-60 and expresses reduced topoisomerase II activity. […] Mitoxantrone, the topoisomerase II targeting agent was included as a control.

[11] = system: MES-SA/Dx5; test: Cell growth inhibition (resazurin), multidrug resistant MES-SA/Dx5; type: cell-based, human; conditions: for EC50: Table 3, 48 hours drug exposure

In the case of CC[C@H]1C(=O)N[C@@]2([C@@H](O)[C@@H]3C=CCCC3)C(=O)O[C@@]12C [Formula II-17], the EC50 [1] is reported as 0.573 µM and 0.602 µM, the inhibition at 0.001 µM [2] is reported as 6 ± 6% and the inhibition at 0.005 µM [2] is reported as 10 ± 5%. The inhibition at 0.01 µM [2] was 6 ± 6%, the inhibition at 0.05 µM [2] was 26 ± 5% and the inhibition at 0.1 µM [2] was 30 ± 4%. For the same compound, the inhibition at 0.5 µM [2] was 39 ± 3%, the inhibition at 1 µM [2] was 46 ± 4% and the inhibition at 10 µM [2] was 65 ± 5%. For the same compound, the “cytotoxicity against RPMI 8226 in media containing 1% or 10% FBS, in words” value [3] was “cytotoxic” and the “% inhibition of the chymotrypsin-like activity of 20S proteasomes in PC-3 cell lysates” value [4] was 26%.
With C[C@@]12OC(=O)[C@]1([C@@H](O)[C@H]1CCC[C@H](Cl)[C@H]1O)NC(=O)[C@@H]2CCCl [Formula IV-3C] the “cytotoxicity against U266, in words” value [5] was “cytotoxic”, the EC50 ([6]; Homo sapiens, U-266, 48 h, read-out: U266 EC50, Table 2) was 7.76 µM and the EC50 ([6]; read-out: U266 EC50, Table 2) was 8.29 µM. For the same compound, the EC50 [1] was over 20 µM, the EC50 [7] was over 20 µM and the EC50 ([8]; EC50 Chymotrypsin-like, Table 6, values in μM) was 4.9 µM and 10.6 µM. The EC50 ([8]; EC50 values, chymotrypsin-like activity, range or bound stated in text, summary of Table 6) was 1.4 to 10.6 µM and the EC50 [9] was over 20 µM.
O=C1c2c(O)ccc(O)c2C(=O)c2c(NCCNCCO)ccc(NCCNCCO)c21 [Mitoxantrone, reference compound] was tested, and the Fold change [10] was about 30 fold.
CC(C)[C@H](O)[C@@]12NC(=O)[C@H](C)[C@@H]1OC2=O [Omuralide, reference compound] showed an inhibition at 0.001 µM ([2]; 1 nM, 1 hr incubation, mean ± SD, n = 3) of 5 ± 9%, an inhibition at 0.005 µM ([2]; 5 nM, 1 hr incubation, mean ± SD, n = 3) of 8 ± 9% and an inhibition at 0.05 µM ([2]; 50 nM, 1 hr incubation, mean ± SD, n = 3) of 17 ± 11%. For the same compound, the inhibition at 0.1 µM ([2]; 100 nM, 1 hr incubation, mean ± SD, n = 3) was 32 ± 8%, the inhibition at 0.5 µM ([2]; 500 nM, 1 hr incubation, mean ± SD, n = 3) was 68 ± 11% and the “% inhibition of the chymotrypsin-like activity of 20S proteasomes in PC-3 cell lysates” value [4] was 36%. For the same compound, the inhibition at 0.1 µM ([4]; PC-3, read-out: % inhibition of the chymotrypsin-like activity of 20S proteasomes in PC-3 cell lysates) was 36%.
CC(=O)O[C@H]1C(=O)[C@@]2(C)[C@H]([C@H](OC(=O)c3ccccc3)[C@]3(O)C[C@H](OC(=O)[C@H](O)[C@@H](NC(=O)c4ccccc4)c4ccccc4)C(C)=C1C3(C)C)[C@]1(OC(C)=O)CO[C@@H]1C[C@@H]2O [Paclitaxel] gave an EC50 ([11]; Homo sapiens, MES-SA/Dx5, 48 h) of 2.93 µM, an EC50 [11] of 5.21 µM and a Fold change ([11]; ratio of EC50 values (MES-SA/Dx5:MES-SA)) of about 800 fold.
